In patent US5726195A, “Aminoacyl adenylate mimics as novel antimicrobial and antiparasitic agents” (Cubist Pharmaceuticals, Inc., priority 1996, dated 1998) one finds IC50 and MIC data, which are given here for seven molecules.

Each structure is given as a SMILES string. Converted amounts (≈) assume the structure as drawn. Where only a bound is given, the exact number is not on record here.

The target in test [1] is E. Coli. IleRS (isoleucyl-tRNA synthetase) (Escherichia coli, UniProt P00956). Kind of test: Inhibition of isoleucyl-tRNA synthetase (aminoacylation of tRNA with [3H]isoleucine). Particulars: E. coli enzyme; irreversible inhibitors: values are 50% of the active enzyme concentration; read-out: IC50 E.Coli. IleRS. It is filed as biochemical. How it is done:
The extent of aminoacylation of tRNA with isoleucine catalyzed by isoleucyl-tRNA synthetase enzyme was measured by monitoring the incorporation of [3H] isoleucine into trichloroacetic acid-precipitable tRNA in the presence of a compound of Formula I, as compared with activity in the absence of inhibitor. The isoleucyl-tRNA synthetase enzymes are well known in the prior art and can be obtained and purified by known methods (for example see: D. Kern et at., Biochimie, 61, 1257-1272 (1979) and J. Gilbart et al., Antimicrobial Agents and Chemotherapy, 37 (1), 32-38 (1993)).
Isoleucyl-tRNA synthetase enzyme (0.08-2.0 nM, preferably, 0.4 nM) was first pre-incubated at 25° C. with 0.05 mg/ml bovine serum albumin, 10 mM DTT, 2.5% dimethyl sulfoxide, with or without a compound of Formula I, for 20 minutes. At this point a substrate solution (a solution containing the following: ATP, [^3 H]isoleucine, tRNA, HEPES, magnesium chloride, and potassium chloride) was added to give a final concentration of 0.0286 mg/ml bovine serum albumin, 5.7 mM DTT, 4 mM ATP, 5-20 μM [^3 H] isoleucine (1-15 Ci/mmol), 90 μM crude tRNA or 2 μM isoleucine specific tRNA, 1.4% dimethyl sulfoxide, 30 mM HEPES (pH 7.5), 10 mM magnesium chloride, and 50 mM potassium chloride and incubated at 25° C. Aliquots were removed at selected times (e.g. 5, 10, 20 minutes) and applied to 3MM filter paper discs (Whatman) and then dropped into 5% (wt/vol) trichloroacetic acid for >5 minutes. Filters were washed for three 10-minute periods in 5% trichloroacetic acid, rinsed in 95% ethanol and diethyl ether, and radioactivity was measured with Betafluor™ (National Diagnostics) by liquid scintillation counting.
Inhibitor activity is reported in Table II as an IC50 value (inhibitor concentration causing 50% inhibition of enzyme activity) per a known amount of active enzyme. In the case of irreversible inhibitors (1:1 stoichiometry) these values are 50% of the active enzyme concentration. The IC50 (in nM, E. coli) values of representative compounds of the present invention are listed in the second column of Table II.

A further test relates to C. albicans ATCC 10231. Description: Whole cell antimicrobial screen, MIC. The class given is cell-based. As to conditions: Candida albicans, ATCC10231. As for the experimental part: (§1) Compounds were tested for antimicrobial activity against a panel of organisms according to standard procedures described by the National Committee for Clinical Laboratory Standards (NCCLS document M7-A3, Vol. 13, No. 25, 1993/NCCLS document M27-P, Vol. 12, No. 25, 1992). Compounds were dissolved in 100% dimethyl sulfoxide and were diluted to the final reaction concentration (0.1 μg/mL-500 μg/mL) in microbial growth media. In al cases the final concentration of dimethyl sulfoxide incubated with cells is less than or equal to 1%. For minimum inhibitory concentration (MIC) calculations, 2-fold dilutions of compounds were added to wells of a microtiter plate containing 5×10^4 bacteria or fungal cells in a final volume of 100 lambda of an appropriate media (Mueller-Hinton Broth; Haemophilus Test Media; Mueller-Hinton Broth+5% Sheep Blood; or […]). Plates were incubated overnight at an appropriate temperature (30° C.-37° C.) and optical densities (measure of cell growth) were measured using a commercial plate reader. The MIC value is defined as the lowest compound concentration inhibiting growth of the test organism.

Another test relates to E. faecalis ATCC 33011. Description: Whole cell antimicrobial screen, MIC. The class given is cell-based. Particulars: Enterococcus faecalis, ATCC33011. How it is done: as §1
The subject of the next test is E. faecium ATCC 6569. Description: Whole cell antimicrobial screen, MIC. It is filed as cell-based. Particulars: Enterococcus faecium, ATCC6569. How it is done:
as §1

Another test has as its system S. aureus ATCC 14154. Description: Whole cell antimicrobial screen, MIC. It is filed as cell-based. Particulars: Staphylococcus aureus, ATCC14154. How it is done: as §1
A further test deals with S. aureus ATCC 6538P. Kind of test: Whole cell antimicrobial screen, MIC. As to conditions: Staphylococcus aureus, ATCC6538P. It is filed as cell-based. How it is done: as §1
Test [2] concerns S. epidermidis ATCC 33501. Description: Whole cell antimicrobial screen, MIC. It is filed as cell-based. As to conditions: Staphylococcus epidermidis, ATCC33501. How it is done:
as §1

The test system of test [3] is S. saprophyticus ATCC 35552. Description: Whole cell antimicrobial screen, MIC. The class given is cell-based. As to conditions: Staphylococcus saprophyticus, ATCC35552. As for the experimental part:
as §1

E. Coli. IleRS (isoleucyl-tRNA synthetase), sequence (P00956 whole entry): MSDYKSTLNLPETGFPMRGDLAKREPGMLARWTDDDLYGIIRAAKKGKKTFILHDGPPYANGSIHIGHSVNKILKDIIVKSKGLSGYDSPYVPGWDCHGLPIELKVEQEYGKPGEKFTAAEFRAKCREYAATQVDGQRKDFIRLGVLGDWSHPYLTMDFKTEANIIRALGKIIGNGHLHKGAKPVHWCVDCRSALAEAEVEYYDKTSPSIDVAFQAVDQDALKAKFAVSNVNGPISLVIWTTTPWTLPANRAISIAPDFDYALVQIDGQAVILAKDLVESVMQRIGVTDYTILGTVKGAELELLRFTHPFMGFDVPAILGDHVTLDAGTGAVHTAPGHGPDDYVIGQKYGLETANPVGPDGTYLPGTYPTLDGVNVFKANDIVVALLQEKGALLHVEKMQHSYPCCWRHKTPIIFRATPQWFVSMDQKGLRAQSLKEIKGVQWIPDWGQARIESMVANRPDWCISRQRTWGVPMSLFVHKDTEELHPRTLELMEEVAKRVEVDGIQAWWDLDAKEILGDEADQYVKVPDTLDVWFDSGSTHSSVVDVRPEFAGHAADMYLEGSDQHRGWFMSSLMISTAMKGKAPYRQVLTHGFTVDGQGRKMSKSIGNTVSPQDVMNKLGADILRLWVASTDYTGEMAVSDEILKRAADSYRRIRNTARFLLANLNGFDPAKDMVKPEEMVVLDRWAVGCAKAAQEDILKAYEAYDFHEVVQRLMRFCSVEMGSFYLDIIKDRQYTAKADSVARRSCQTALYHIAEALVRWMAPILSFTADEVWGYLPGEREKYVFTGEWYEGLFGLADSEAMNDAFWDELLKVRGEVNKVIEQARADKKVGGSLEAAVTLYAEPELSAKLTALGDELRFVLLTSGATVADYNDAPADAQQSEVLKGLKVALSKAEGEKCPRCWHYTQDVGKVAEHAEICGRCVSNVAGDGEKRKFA

For orientation: IC50 means the concentration at which inhibition is half-maximal. Usually MIC stands for the lowest concentration that inhibits growth of the organism. High values mean a need for much substance, low ones inhibition by little substance. As to `CC[C@H](C)[C@H](N)C(=O)NS(=O)(=O)OC[C@H]1O[C@@H](CCn2nnc(-c3ccc(C#Cc4cccc([N+](=O)[O-])c4)cc3)n2)[C@H](O)[C@@H]1O` [III], in test [1], the concentration for half-maximal inhibition (IC50) was found to be 3 nM. Moreover, the minimum inhibitory concentration (MIC) is greater than 500 µg/mL against C. albicans ATCC 10231; greater than 500 µg/mL with E. faecalis ATCC 33011; greater than 500 µg/mL in the test with E. faecium ATCC 6569; 50 µg/mL (≈ 77.7 µM) in the test with S. aureus ATCC 14154; 50 µg/mL (≈ 77.7 µM) with S. aureus ATCC 6538P; 1 µg/mL (≈ 1.55 µM) in test [2]. Further, in test [3], inhibition of growth (MIC) required 5 µg/mL (≈ 7.77 µM).
For `CC[C@H](C)[C@H](N)C(=O)NS(=O)(=O)OC[C@H]1O[C@@H](CCn2nnc(-c3ccc(C=C(Br)Br)cc3)n2)[C@H](O)[C@@H]1O` [V], the IC50 in test [1] stood at 11 nM. The minimal inhibitory concentration (MIC) was found to be 500 µg/mL (≈ 733 µM) in the test with C. albicans ATCC 10231; 500 µg/mL (≈ 733 µM) against E. faecalis ATCC 33011; 100 µg/mL (≈ 147 µM) with E. faecium ATCC 6569; 100 µg/mL (≈ 147 µM) against S. aureus ATCC 14154; 50 µg/mL (≈ 73.3 µM) in the test with S. aureus ATCC 6538P; 25 µg/mL (≈ 36.6 µM) in test [2]. In test [3], this molecule registered an MIC of 25 µg/mL (≈ 36.6 µM).
Regarding `CC[C@H](C)[C@H](N)C(=O)NS(=O)(=O)OC[C@H]1O[C@@H](CCn2nnc(-c3ccc(Oc4ccc(Oc5ccccc5)cc4)cc3)n2)[C@H](O)[C@@H]1O` [XV], the half-maximal inhibitory concentration (IC50) in test [1] turned out to be 1.8 nM. Moreover, the minimum inhibitory concentration (MIC) in the test with C. albicans ATCC 10231 is greater than 500 µg/mL; with E. faecalis ATCC 33011, greater than 500 µg/mL; against E. faecium ATCC 6569 it was 25 µg/mL (≈ 36.6 µM); with S. aureus ATCC 14154, 10 µg/mL (≈ 14.6 µM); in the test with S. aureus ATCC 6538P it was 10 µg/mL (≈ 14.6 µM); in test [2] it was 5 µg/mL (≈ 7.32 µM). The same molecule registered an MIC in test [3] of 10 µg/mL (≈ 14.6 µM).
As to `CC[C@H](C)[C@H](N)C(=O)NS(=O)(=O)OC[C@H]1O[C@@H](CCn2nnc(-c3ccc(Oc4ccccn4)cc3)n2)[C@H](O)[C@@H]1O` [XVI], the half-inhibitory concentration (IC50) in test [1] stood at 0.7 nM. For the same molecule, the MIC is 100 µg/mL (≈ 169 µM) in the test with C. albicans ATCC 10231; 500 µg/mL (≈ 845 µM) against E. faecalis ATCC 33011; 50 µg/mL (≈ 84.5 µM) against E. faecium ATCC 6569; 100 µg/mL (≈ 169 µM) against S. aureus ATCC 14154; 100 µg/mL (≈ 169 µM) against S. aureus ATCC 6538P; 25 µg/mL (≈ 42.3 µM) in test [2]. Also, in test [3], the MIC is 50 µg/mL (≈ 84.5 µM).
Turning to `CC[C@H](C)[C@H](N)C(=O)NS(=O)(=O)OC[C@H]1O[C@@H](CCn2nnc(-c3ccc(Oc4ccc(OC)cc4)cc3)n2)[C@H](O)[C@@H]1O` [XII], the IC50 in test [1] worked out at 3 nM. Moreover, the MIC against C. albicans ATCC 10231 is 500 µg/mL (≈ 806 µM); against E. faecalis ATCC 33011 it was 500 µg/mL (≈ 806 µM); against E. faecium ATCC 6569, 10 µg/mL (≈ 16.1 µM); in the test on S. aureus ATCC 14154, 50 µg/mL (≈ 80.6 µM); against S. aureus ATCC 6538P, 25 µg/mL (≈ 40.3 µM); in test [2], less than 5 µg/mL. The molecule further yielded a minimum inhibitory concentration (MIC) in test [3] of 25 µg/mL (≈ 40.3 µM).
`CC[C@H](C)[C@H](N)C(=O)NS(=O)(=O)OC[C@H]1O[C@@H](CCn2nnc(-c3ccc(C#Cc4ccc([N+](=O)[O-])s4)cc3)n2)[C@H](O)[C@@H]1O` [I, [S-(R*,R*)]-3,6-anhydro-1,2-dideoxy-1-[5-[4-[(5-nitro-2-thienyl)ethynyl]phenyl]-2H-tetrazol-2-yl]-D-allo-heptitol 7-(2-amino-3-methyl-1-oxopentyl)sulfamate]: the IC50 in test [1] amounted to 1.3 nM. Also, the MIC with C. albicans ATCC 10231 was greater than 500 µg/mL; against E. faecalis ATCC 33011 it was greater than 500 µg/mL; against E. faecium ATCC 6569, greater than 500 µg/mL; against S. aureus ATCC 14154, 5 µg/mL (≈ 7.7 µM); against S. aureus ATCC 6538P it was 1 µg/mL (≈ 1.54 µM); in test [2], 1 µg/mL (≈ 1.54 µM). The MIC in test [3] was determined as 2 µg/mL (≈ 3.08 µM).
Take `CC[C@H](C)[C@H](N)C(=O)NS(=O)(=O)OC[C@H]1O[C@@H](CCn2nnc(-c3ccc(C(=O)OC)cc3)n2)[C@H](O)[C@@H]1O` [VII]: in test [1], the IC50 came to 0.53 nM. Moreover, the MIC against C. albicans ATCC 10231 is greater than 500 µg/mL; against E. faecalis ATCC 33011 it was greater than 500 µg/mL; against E. faecium ATCC 6569, 100 µg/mL (≈ 180 µM); in the test on S. aureus ATCC 14154, 500 µg/mL (≈ 898 µM); in the test on S. aureus ATCC 6538P it was 100 µg/mL (≈ 180 µM); in test [2], 10 µg/mL (≈ 18 µM). The same molecule returned an MIC in test [3] of 50 µg/mL (≈ 89.8 µM).
